The source made the active and inactive calls.
Key:
[1] = molecular target: MAP/microtubule affinity-regulating kinase 3 (Homo sapiens) (UniProt P27448); assay: Inhibition of MARK3 (unknown origin) at 1 uM
[2] = molecular target: Serine/threonine-protein kinase LATS1 (Homo sapiens) (UniProt O95835); assay: Inhibition of LATS1 (unknown origin) at 1 uM
[3] = Half life in monkey liver microsomes; type: ADME, Macaca mulatta, Microsome; settings: rhesus monkey
[4] = tested on: HCT-116; assay: Antitumor immunity in BALB/c mouse xenografted with human HCT-116 cells assessed as induction of apoptosis of CD4+ T-lymphocytes in spleen by propidium iodide staining based flow cytometry analysis (reference value: 33.9 %); type: functional
[5] = molecular target: Serine/threonine-protein kinase 3 (Homo sapiens) (UniProt Q13188); assay: Inhibition of MST2 (unknown origin) at 1 uM
[6] = molecular target: Ephrin type-A receptor 8 (Homo sapiens) (UniProt P29322); assay: Inhibition of EPHA8 (unknown origin) at 1 uM
[7] = molecular target: Serine/threonine-protein kinase A-Raf (Homo sapiens) (UniProt P10398); assay: Inhibition of ARAF (unknown origin) at 1 uM
[8] = molecular target: Mitogen-activated protein kinase 13 (Homo sapiens) (UniProt O15264); assay: Inhibition of p38delta (unknown origin) at 1 uM
[9] = tested on: HCT-116; assay: Antitumor activity against human HCT-116 cells xenografted in BALB/c nude mouse assessed as tumor growth inhibition at 100 to 300 mg/kg, ig bid for 21 days by vernier caliper method; type: functional, organism-based; settings: dose 100-300 mg/kg, time 21.0 day
[10] = molecular target: Megakaryocyte-associated tyrosine-protein kinase (Homo sapiens) (UniProt P42679); assay: Inhibition of CTK (unknown origin) at 1 uM
[11] = molecular target: CDK9/cyclin T1 (Homo sapiens) (UniProt O60563+P50750); assay: Inhibition of CDK9/cyclin-T1 (unknown origin) at 1 uM; type: protein-complex assay
[12] = molecular target: Testis-specific serine/threonine-protein kinase 2 (Homo sapiens) (UniProt Q96PF2); assay: Inhibition of TSSK2 (unknown origin) at 1 uM
[13] = tested on: HCT-116; assay: Antitumor immunity in BALB/c mouse xenografted with human HCT-116 cells assessed as increase in TNFalpha in serum by […]; type: functional, cell-based
[14] = molecular target: Focal adhesion kinase 1 (Homo sapiens) (UniProt Q05397); assay: Inhibition of FAK (unknown origin) at 1 uM
[15] = molecular target: Mitogen-activated protein kinase 3 (Homo sapiens) (UniProt P27361); assay: Inhibition of ERK1 (unknown origin) at 1 uM
[16] = molecular target: SNF-related serine/threonine-protein kinase (Homo sapiens) (UniProt Q9NRH2); assay: Inhibition of SNRK (unknown origin) at 1 uM
[17] = molecular target: Ephrin type-B receptor 3 (Homo sapiens) (UniProt P54753); assay: Inhibition of EPHB3 (unknown origin) at 1 uM
[18] = species on record: Homo sapiens; assay: Inhibition of ALK6 (unknown origin) at 1 uM
[19] = tested on: HCT-116; assay: Antitumor immunity in BALB/c mouse xenografted with human HCT-116 cells assessed as induction of apoptosis of CD4+ T-lymphocytes in tumor-draining lymph nodes by propidium iodide staining based flow cytometry analysis (reference value: 21.9 %); type: functional
[20] = molecular target: Proto-oncogene tyrosine-protein kinase Src (Homo sapiens) (UniProt P12931); assay: Inhibition of c-SRC (unknown origin) at 1 uM
[21] = molecular target: Serine/threonine-protein kinase pim-1 (Homo sapiens) (UniProt P11309); assay: Inhibition of PIM1 (unknown origin) at 1 uM
[22] = molecular target: Cyclin-dependent kinase 1/cyclin B1 (Homo sapiens) (UniProt P06493+P14635); assay: Inhibition of CDK1/cyclinB (unknown origin) at 1 uM; type: protein-complex assay
[23] = molecular target: Macrophage-stimulating protein receptor (Homo sapiens) (UniProt Q04912); assay: Inhibition of RON (unknown origin) at 1 uM
[24] = molecular target: Protein kinase C zeta type (Homo sapiens) (UniProt Q05513); assay: Inhibition of PKCzeta (unknown origin) at 1 uM
[25] = tested on: HCT-116; assay: Antitumor immunity in BALB/c mouse xenografted with human HCT-116 cells assessed as late Treg cells in spleen by propidium iodide staining based flow cytometry analysis (reference value: 10.3 %); type: functional
[26] = molecular target: SRSF protein kinase 3 (Homo sapiens) (UniProt Q9UPE1); assay: Inhibition of MSSK1 (unknown origin) at 1 uM
[27] = molecular target: Aurora kinase B (Homo sapiens) (UniProt Q96GD4); assay: Inhibition of Aurora B (unknown origin) at 1 uM
[28] = molecular target: Mitogen-activated protein kinase 8 (Homo sapiens) (UniProt P45983); assay: Inhibition of JNK1 (unknown origin) at 1 uM
[29] = AUC (0 to t) in Sprague-Dawley rat at 50 mg/kg, po; type: ADME, organism-based; parameters: dose 50 mg/kg, route po; settings: in vivo
[30] = molecular target: Ephrin type-B receptor 2 (Homo sapiens) (UniProt P29323); assay: Inhibition of EPHB2 (unknown origin) at 1 uM
[31] = molecular target: Dual specificity mitogen-activated protein kinase kinase 1 (Homo sapiens) (UniProt Q02750); assay: Inhibition of MEK1 (unknown origin) at 1 uM
[32] = molecular target: Calcium/calmodulin-dependent protein kinase type II subunit gamma (Homo sapiens) (UniProt Q13555); assay: Inhibition of CAMK2G (unknown origin) at 1 uM
[33] = molecular target: Insulin receptor-related protein (Homo sapiens) (UniProt P14616); assay: Inhibition of IRR (unknown origin) at 1 uM
[34] = molecular target: Hepatocyte growth factor receptor (Homo sapiens) (UniProt P08581); assay: Inhibition of c-MET (unknown origin) at 1 uM
[35] = molecular target: Bone morphogenetic protein receptor type-2 (Homo sapiens) (UniProt Q13873); assay: Inhibition of BMPR2 (unknown origin) at 1 uM
[36] = molecular target: Homeodomain-interacting protein kinase 4 (Homo sapiens) (UniProt Q8NE63); assay: Inhibition of HIPK4 (unknown origin) at 1 uM
[37] = molecular target: Serine/threonine-protein kinase D3 (Homo sapiens) (UniProt O94806); assay: Inhibition of PKCnu (unknown origin) at 1 uM
[38] = molecular target: Serine/threonine-protein kinase TAO3 (Homo sapiens) (UniProt Q9H2K8); assay: Inhibition of TAOK3 (unknown origin) at 1 uM
[39] = molecular target: CDK9/Cyclin K (Homo sapiens) (UniProt P50750+O75909); assay: Inhibition of CDK9/cyclin-K (unknown origin) at 1 uM; type: protein-complex assay
[40] = molecular target: Dual specificity tyrosine-phosphorylation-regulated kinase 3 (Homo sapiens) (UniProt O43781); assay: Inhibition of DYRK3 (unknown origin) at 1 uM
[41] = molecular target: Tyrosine-protein kinase FRK (Homo sapiens) (UniProt P42685); assay: Inhibition of FRK (unknown origin) at 1 uM
[42] = species on record: Homo sapiens; assay: Inhibition of MLCK (unknown origin) at 1 uM
[43] = molecular target: Kinase suppressor of Ras 2 (Homo sapiens) (UniProt Q6VAB6); assay: Inhibition of KSR2 (unknown origin) at 1 uM
[44] = molecular target: Mitogen-activated protein kinase kinase kinase 5 (Homo sapiens) (UniProt Q99683); assay: Inhibition of ASK1 (unknown origin) at 1 uM
Mitogen-activated protein kinase kinase kinase 5 (Homo sapiens), sequence (Q99683 whole entry): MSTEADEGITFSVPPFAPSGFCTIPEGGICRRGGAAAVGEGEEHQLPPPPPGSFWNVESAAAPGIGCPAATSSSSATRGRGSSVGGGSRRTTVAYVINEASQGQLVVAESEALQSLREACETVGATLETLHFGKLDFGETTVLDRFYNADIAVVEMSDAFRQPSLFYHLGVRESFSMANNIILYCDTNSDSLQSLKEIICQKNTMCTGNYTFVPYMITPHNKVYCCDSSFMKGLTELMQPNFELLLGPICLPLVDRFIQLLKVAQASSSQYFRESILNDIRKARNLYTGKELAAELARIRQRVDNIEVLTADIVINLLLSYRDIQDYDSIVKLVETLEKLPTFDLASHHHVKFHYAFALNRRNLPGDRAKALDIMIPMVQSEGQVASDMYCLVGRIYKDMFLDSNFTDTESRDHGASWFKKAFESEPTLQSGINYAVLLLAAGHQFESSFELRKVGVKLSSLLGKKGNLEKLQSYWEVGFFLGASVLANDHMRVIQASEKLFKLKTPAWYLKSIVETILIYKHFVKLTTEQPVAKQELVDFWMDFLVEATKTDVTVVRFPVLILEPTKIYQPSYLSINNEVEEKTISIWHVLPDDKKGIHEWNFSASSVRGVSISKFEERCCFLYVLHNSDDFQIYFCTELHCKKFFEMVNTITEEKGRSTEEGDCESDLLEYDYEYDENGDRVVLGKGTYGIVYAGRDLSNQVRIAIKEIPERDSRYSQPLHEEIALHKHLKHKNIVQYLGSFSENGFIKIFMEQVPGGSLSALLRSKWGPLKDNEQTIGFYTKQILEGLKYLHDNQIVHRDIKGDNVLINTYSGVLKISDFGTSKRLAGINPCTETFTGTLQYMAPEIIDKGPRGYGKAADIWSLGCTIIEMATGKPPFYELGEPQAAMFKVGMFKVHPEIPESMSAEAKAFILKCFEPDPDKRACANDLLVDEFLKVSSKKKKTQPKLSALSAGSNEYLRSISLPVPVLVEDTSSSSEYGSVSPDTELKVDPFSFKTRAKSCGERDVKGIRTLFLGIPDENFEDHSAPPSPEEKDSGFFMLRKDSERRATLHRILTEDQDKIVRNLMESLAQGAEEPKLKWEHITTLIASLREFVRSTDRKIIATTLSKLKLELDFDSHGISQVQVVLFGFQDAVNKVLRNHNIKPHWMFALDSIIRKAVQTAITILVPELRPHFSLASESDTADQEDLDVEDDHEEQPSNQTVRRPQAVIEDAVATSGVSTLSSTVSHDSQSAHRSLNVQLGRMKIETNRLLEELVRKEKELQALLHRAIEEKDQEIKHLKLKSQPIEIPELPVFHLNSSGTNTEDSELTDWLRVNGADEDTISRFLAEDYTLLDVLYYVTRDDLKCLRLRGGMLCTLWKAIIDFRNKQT

Insulin receptor-related protein (Homo sapiens), sequence (P14616 27-742 limits assumed): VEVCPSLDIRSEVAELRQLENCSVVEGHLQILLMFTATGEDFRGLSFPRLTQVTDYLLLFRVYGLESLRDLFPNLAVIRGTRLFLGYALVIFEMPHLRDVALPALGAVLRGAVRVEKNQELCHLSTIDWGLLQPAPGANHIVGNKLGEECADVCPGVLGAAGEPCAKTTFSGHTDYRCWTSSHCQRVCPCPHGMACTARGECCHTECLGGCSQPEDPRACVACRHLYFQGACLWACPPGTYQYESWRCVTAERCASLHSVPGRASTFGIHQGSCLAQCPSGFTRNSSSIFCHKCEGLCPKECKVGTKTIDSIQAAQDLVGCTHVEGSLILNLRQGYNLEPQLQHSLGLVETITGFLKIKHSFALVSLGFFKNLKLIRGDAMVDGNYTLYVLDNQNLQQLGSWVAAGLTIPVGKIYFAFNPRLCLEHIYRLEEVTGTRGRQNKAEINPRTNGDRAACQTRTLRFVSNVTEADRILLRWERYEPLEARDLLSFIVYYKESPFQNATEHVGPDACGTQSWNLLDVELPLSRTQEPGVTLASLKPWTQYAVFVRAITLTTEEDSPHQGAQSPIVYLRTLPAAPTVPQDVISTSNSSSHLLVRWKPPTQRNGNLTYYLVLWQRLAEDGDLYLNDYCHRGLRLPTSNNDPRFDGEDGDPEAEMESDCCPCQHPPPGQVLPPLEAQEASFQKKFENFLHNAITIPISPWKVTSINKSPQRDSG
Insulin receptor-related protein (Homo sapiens), sequence (P14616 747-1297 limits assumed): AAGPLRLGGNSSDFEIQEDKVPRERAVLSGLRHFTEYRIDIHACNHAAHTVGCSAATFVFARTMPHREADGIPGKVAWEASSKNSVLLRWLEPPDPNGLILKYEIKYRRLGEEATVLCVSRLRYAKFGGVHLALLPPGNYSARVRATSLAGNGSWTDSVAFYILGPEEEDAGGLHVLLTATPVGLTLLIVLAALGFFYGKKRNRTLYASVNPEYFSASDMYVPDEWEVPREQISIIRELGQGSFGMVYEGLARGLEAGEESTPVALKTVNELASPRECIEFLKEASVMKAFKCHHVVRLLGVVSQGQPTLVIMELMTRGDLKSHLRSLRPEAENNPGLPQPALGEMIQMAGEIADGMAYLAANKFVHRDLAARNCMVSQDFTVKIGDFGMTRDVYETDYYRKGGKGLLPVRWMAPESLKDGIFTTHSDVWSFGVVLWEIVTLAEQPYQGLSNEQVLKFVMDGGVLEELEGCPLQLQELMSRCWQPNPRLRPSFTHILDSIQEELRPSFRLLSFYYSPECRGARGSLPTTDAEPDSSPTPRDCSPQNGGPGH
SNF-related serine/threonine-protein kinase (Homo sapiens), sequence (Q9NRH2 whole entry): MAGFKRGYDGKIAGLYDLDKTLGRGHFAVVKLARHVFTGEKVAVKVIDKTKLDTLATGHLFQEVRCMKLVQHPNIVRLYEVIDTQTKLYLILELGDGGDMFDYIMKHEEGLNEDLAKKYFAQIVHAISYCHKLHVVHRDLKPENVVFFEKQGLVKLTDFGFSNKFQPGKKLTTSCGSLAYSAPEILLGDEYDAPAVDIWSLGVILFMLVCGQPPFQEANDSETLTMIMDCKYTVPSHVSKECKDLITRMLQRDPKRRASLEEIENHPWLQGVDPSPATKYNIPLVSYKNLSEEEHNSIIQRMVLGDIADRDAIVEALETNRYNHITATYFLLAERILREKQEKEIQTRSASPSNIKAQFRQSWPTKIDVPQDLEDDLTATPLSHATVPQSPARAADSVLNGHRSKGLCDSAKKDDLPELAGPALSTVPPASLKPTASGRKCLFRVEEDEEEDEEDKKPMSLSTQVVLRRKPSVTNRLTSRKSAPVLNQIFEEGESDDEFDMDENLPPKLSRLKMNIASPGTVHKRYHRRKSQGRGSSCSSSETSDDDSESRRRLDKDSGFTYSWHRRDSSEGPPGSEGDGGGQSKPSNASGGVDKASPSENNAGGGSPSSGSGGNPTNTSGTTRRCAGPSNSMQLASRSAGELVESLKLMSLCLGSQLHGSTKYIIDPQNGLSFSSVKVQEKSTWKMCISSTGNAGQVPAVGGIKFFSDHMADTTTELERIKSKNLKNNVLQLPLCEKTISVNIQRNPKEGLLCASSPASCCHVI
Serine/threonine-protein kinase D3 (Homo sapiens), sequence (O94806 whole entry): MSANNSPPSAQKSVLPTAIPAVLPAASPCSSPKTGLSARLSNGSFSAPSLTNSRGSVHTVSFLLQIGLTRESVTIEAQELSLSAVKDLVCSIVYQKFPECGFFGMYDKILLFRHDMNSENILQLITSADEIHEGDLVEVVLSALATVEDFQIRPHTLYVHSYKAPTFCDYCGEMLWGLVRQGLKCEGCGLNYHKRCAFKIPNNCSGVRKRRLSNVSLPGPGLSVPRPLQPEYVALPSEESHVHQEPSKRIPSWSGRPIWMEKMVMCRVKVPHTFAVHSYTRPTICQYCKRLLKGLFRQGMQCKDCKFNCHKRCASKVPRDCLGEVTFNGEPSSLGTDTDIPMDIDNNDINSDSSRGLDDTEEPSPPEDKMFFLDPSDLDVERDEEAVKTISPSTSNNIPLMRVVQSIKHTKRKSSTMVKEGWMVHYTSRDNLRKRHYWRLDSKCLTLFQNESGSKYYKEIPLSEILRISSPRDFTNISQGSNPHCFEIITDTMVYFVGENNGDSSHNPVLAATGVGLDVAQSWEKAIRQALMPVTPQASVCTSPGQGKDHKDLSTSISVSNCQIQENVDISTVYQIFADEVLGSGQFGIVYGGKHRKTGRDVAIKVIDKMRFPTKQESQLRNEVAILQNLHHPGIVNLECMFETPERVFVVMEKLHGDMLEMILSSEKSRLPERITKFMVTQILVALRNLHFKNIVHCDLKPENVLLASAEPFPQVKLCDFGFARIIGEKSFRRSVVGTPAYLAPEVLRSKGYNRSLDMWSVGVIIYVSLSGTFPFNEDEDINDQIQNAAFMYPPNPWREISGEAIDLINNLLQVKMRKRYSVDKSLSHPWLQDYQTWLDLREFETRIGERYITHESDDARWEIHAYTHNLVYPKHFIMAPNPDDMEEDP
Serine/threonine-protein kinase A-Raf (Homo sapiens), sequence (P10398 whole entry): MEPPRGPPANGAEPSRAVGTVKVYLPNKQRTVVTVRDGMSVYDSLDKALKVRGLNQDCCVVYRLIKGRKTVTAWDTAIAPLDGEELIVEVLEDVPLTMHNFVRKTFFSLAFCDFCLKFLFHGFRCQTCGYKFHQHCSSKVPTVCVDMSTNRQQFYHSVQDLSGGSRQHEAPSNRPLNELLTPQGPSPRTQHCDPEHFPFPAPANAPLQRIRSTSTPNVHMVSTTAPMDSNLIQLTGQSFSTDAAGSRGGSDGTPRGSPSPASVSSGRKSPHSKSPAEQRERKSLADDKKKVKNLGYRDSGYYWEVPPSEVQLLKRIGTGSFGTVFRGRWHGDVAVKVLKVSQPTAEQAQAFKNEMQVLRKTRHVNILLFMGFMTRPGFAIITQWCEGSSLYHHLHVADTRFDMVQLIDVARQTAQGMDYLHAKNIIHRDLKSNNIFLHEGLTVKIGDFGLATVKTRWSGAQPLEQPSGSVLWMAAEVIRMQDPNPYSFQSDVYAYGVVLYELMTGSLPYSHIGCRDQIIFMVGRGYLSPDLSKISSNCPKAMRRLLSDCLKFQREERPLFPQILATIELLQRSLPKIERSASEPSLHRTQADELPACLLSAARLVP

OCCOCc1cn(CCNc2nonc2/C(=N/O)Nc2ccc(F)c(Br)c2)nn1
8.83%: Activity [19]
3640 ng·h/mL: AUC(0-t) [29]
inactive: inhibition [1] | inhibition [2] | inhibition [5] | inhibition [6] | inhibition [7] | inhibition [8] | Activity [9] | inhibition [10] | inhibition [11] | inhibition [12] | inhibition [14] | inhibition [15] | inhibition [16] | inhibition [17] | inhibition [18] | inhibition [20] | inhibition [21] | inhibition [22] | inhibition [23] | inhibition [24] | inhibition [26] | inhibition [27] | inhibition [28] | inhibition [30] | inhibition [31] | inhibition [32] | inhibition [33] | inhibition [34] | inhibition [35] | inhibition [36] | inhibition [37] | inhibition [38] | inhibition [39] | inhibition [40] | inhibition [41] | inhibition [42] | inhibition [43] | inhibition [44]
active: Activity [13]
15.3%: Activity [4]
7.24%: Activity [25]
38.6 min: half-life [3]
